pIC50: −log10 of the molar value.
Columns and labels:
[1] = molecular target: 5-hydroxytryptamine receptor 1A (Homo sapiens) (UniProt P08908); test: Displacement of [3H]-8-OH-DPAT from full length human recombinant 5HT1A receptor expressed in CHOK-1 cells at 10 uM measured after 60 mins by radiometric scintillation analysis relative to control; assay type: cell-based
[2] = Protein binding in dog plasma at 0.5 mg/kg, iv or 1 mg/kg, po; assay type: ADME, organism-based, Canis lupus familiaris; conditions: read-out: PPB (converted)
[3] = molecular target: Serine/threonine-protein kinase Sgk1 (Homo sapiens, UniProt O00141); test: Inhibition of recombinant human GST-tagged SGK1 catalytic domain (60 to 431 residues) expressed in baculovirus expression system using serine/threonine-6 peptide as substrate incubated for 60 mins in presence of ATP by Z'-LYTE assay
[4] = molecular target: Muscarinic acetylcholine receptor M3 (Homo sapiens) (UniProt P20309); test: Displacement of [3H]N-Methylscopolamine from full length human recombinant Muscarinic M3 receptor expressed in CHOK1 cells at 10 uM measured after 120 mins by radiometric scintillation analysis relative to control; assay type: cell-based; conditions: CHO-K1
[5] = molecular target: Tyrosine-protein kinase ABL1 (Homo sapiens, UniProt P00519, E255K); test: Inhibition of recombinant full length human His-tagged ABL1 E255K mutant cytoplasmic domain expressed in baculovirus expression system using tyrosine-2 peptide as substrate incubated for 60 mins in presence of ATP by Z'-LYTE assay
[6] = molecular target: Voltage-dependent L-type calcium channel subunit alpha-1C (Homo sapiens, UniProt Q13936); test: Inhibition of Cav1.2 (unknown origin)
Insulin receptor = Insulin receptor (Homo sapiens, UniProt P06213); test: Inhibition of recombinant human GST-tagged INSR cytoplasmic domain expressed in baculovirus expression system using tyrosine-1 peptide as substrate incubated for 60 mins in presence of ATP by Z'-LYTE assay
[7] = molecular target: Substance-P receptor (Homo sapiens) (UniProt P25103); test: Displacement of [3H]substance P from recombinant full length human NK1R expressed in CHO cells at 10 uM after 90 mins by radiometric scintillation analysis relative to control; assay type: cell-based
[8] = molecular target: Acetylcholine receptor subunit alpha (Homo sapiens) (UniProt P02708); test: Displacement of [125I]-alpha-Bungarotoxin from full length nAChR alpha1 receptor in human RD cell membranes at 10 uM measured after 120 mins by radiometric scintillation analysis relative to control
[9] = molecular target: B1 bradykinin receptor (Homo sapiens) (UniProt P46663); test: Inhibition of human B1 bradykinin receptor at 10 uM relative to control
[10] = molecular target: Inhibitor of nuclear factor kappa-B kinase subunit alpha (Homo sapiens, UniProt O15111); test: Inhibition of recombinant full length His-tagged human IKKalpha expressed in baculovirus expression system after 1 hr in presence of ATP by Adapta assay
[11] = molecular target: Serine/threonine-protein kinase TAO2 (Homo sapiens, UniProt Q9UL54); test: Inhibition of recombinant human GST-tagged TAO2 catalytic domain (1 to 314 residues) expressed in baculovirus expression system using serine/threonine-7 peptide as substrate incubated for 60 mins in presence of ATP by Z'-LYTE assay
[12] = molecular target: Serine/threonine-protein kinase PAK 1 (Homo sapiens, UniProt Q13153); test: Inhibition of recombinant full length human GST-tagged PAK1 expressed in baculovirus expression system using serine/threonine-19 peptide as substrate incubated for 60 mins in presence of ATP by Z'-LYTE assay
[13] = molecular target: Phosphatidylinositol 4-kinase alpha (Homo sapiens, UniProt P42356); test: Inhibition of recombinant full length human N-terminal GST-tagged PI4KA expressed in baculovirus expression system using PI lipid as substrate incubated for 60 mins in presence of ATP by Adapta assay
Homo sapiens = species: Homo sapiens; test: Selectivity index, ratio IC50 for inhibition of recombinant human N-terminal His6-tagged full-length p120gamma expressed in Sf21 insect cells to ratio IC50 for inhibition of recombinant human full-length N-terminal GST-tagged p110delta/untagged full-length p85alpha expressed in baculovirus infected Sf21 cells
[14] = molecular target: Serine/threonine-protein kinase D2 (Homo sapiens, UniProt Q9BZL6); test: Inhibition of recombinant full length human GST-tagged PRKD2 expressed in baculovirus expression system using serine/threonine-01 peptide as substrate incubated for 60 mins in presence of ATP by Z'-LYTE assay
[15] = molecular target: 3-phosphoinositide-dependent protein kinase 1 (Homo sapiens, UniProt O15530); test: Inhibition of full length recombinant His-tagged human PDK1 expressed in baculovirus expression system using Ser/Thr 07 as substrate after 1 hr in presence of ATP by Z'LYTE assay
Aurora kinase C = Aurora kinase C (Homo sapiens, UniProt Q9UQB9); test: Inhibition of recombinant full length GST-tagged human AURKC expressed in baculovirus expression system using Ser/Thr-19 peptide as substrate incubated for 60 mins in presence of ATP by Z'-LYTE assay
[16] = molecular target: Phosphorylase b kinase gamma catalytic chain, skeletal muscle/heart isoform (Homo sapiens, UniProt Q16816); test: Inhibition of recombinant full length human GST-tagged PHKG1 expressed in baculovirus expression system using serine/threonine-7 peptide as substrate incubated for 60 mins in presence of ATP by Z'-LYTE assay
Rattus norvegicus = species: Rattus norvegicus; test: Inhibition of rat kainate receptor at 10 uM relative to control
[17] = molecular target: Vascular endothelial growth factor receptor 3 (Homo sapiens, UniProt P35916); test: Inhibition of recombinant human GST-tagged FLT4 cytoplasmic domain expressed in baculovirus expression system after 1 using tyrosine 4 as substrate after 1 hr in presence of ATP by ZYLTE assay
[18] = molecular target: Mast/stem cell growth factor receptor Kit (Homo sapiens, UniProt P10721); test: Inhibition of human recombinant His-tagged KIT cytoplasmic domain expressed in baculovirus expression system using Tyr6 peptide as measured after 1 hr in presence of ATP by Z'-LYTE assay
[19] = molecular target: Serine/threonine-protein kinase Sgk2 (Homo sapiens, UniProt Q9HBY8); test: Inhibition of recombinant human GST-tagged SGK2 catalytic domain (54 to 427 residues) expressed in baculovirus expression system using serine/threonine-6 peptide as substrate incubated for 60 mins in presence of ATP by Z'-LYTE assay
[20] = molecular target: Mitogen-activated protein kinase kinase kinase 9 (Homo sapiens, UniProt P80192); test: Inhibition of recombinant human GST-tagged MAP3K9 catalytic domain expressed in baculovirus expression system using serine/threonine-7 peptide as substrate incubated for 60 mins in presence of ATP by Z'-LYTE assay
[21] = molecular target: Serine/threonine-protein kinase B-raf (Homo sapiens, UniProt P15056, V600E); test: Inhibition of […] N-terminal GST-tagged human BRAF V599E mutant (416 to 766 residues) expressed in baculovirus expression system using Ser/Thr 03 as substrate after 1 hr in presence of ATP by Z'-LYTE assay
[22] = molecular target: Casein kinase I isoform gamma-2 (Homo sapiens, UniProt P78368); test: Inhibition of recombinant human full-length His-tagged CSNK1G2 expressed in baculovirus expression system using FRET-labeled Ser/Thr 05 peptide as substrate measured after 1 hr in presence of ATP by Z'-lyte assay

Chain of Aurora kinase C (Q9UQB9 whole entry, canonical isoform): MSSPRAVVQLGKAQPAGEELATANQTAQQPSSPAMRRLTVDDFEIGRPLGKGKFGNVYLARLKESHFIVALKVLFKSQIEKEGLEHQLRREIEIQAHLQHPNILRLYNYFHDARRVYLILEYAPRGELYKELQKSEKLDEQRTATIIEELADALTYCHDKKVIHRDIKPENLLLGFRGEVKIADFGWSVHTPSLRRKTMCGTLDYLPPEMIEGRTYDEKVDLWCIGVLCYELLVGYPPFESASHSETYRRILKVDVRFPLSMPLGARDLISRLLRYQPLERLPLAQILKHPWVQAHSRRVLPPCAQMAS
Chain of Muscarinic acetylcholine receptor M3 (Homo sapiens) (P20309 whole entry, looked up, the tested form may be a part): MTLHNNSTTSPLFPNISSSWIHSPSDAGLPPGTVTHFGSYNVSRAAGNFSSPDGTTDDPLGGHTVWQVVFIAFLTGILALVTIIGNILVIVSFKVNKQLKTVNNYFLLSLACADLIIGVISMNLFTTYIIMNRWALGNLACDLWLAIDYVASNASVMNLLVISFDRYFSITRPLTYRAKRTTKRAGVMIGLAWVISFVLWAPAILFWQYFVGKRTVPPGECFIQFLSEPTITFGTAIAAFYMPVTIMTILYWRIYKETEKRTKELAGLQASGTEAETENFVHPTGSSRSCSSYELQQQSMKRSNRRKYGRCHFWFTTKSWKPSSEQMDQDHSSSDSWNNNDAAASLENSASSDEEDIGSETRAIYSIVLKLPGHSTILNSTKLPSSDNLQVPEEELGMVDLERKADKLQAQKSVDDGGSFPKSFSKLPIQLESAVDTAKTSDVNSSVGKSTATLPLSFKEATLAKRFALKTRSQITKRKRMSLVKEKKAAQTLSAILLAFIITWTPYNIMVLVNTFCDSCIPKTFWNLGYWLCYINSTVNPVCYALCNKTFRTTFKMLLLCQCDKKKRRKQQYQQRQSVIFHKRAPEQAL
Chain of Serine/threonine-protein kinase Sgk1 (O00141 whole entry, the tested form may be a part): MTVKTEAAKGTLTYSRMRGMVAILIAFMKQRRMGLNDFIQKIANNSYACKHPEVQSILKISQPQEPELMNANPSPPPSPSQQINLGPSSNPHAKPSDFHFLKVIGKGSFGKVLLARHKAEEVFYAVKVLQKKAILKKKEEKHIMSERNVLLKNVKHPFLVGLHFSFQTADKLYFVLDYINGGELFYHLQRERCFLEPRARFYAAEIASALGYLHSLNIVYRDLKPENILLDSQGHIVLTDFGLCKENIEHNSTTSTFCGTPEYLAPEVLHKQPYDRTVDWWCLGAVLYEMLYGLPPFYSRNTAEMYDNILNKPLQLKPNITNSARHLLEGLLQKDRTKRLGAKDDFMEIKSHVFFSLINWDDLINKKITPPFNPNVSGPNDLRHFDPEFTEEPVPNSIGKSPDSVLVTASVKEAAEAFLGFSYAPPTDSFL
Chain of Serine/threonine-protein kinase B-raf (P15056 2-766 V600E limits assumed): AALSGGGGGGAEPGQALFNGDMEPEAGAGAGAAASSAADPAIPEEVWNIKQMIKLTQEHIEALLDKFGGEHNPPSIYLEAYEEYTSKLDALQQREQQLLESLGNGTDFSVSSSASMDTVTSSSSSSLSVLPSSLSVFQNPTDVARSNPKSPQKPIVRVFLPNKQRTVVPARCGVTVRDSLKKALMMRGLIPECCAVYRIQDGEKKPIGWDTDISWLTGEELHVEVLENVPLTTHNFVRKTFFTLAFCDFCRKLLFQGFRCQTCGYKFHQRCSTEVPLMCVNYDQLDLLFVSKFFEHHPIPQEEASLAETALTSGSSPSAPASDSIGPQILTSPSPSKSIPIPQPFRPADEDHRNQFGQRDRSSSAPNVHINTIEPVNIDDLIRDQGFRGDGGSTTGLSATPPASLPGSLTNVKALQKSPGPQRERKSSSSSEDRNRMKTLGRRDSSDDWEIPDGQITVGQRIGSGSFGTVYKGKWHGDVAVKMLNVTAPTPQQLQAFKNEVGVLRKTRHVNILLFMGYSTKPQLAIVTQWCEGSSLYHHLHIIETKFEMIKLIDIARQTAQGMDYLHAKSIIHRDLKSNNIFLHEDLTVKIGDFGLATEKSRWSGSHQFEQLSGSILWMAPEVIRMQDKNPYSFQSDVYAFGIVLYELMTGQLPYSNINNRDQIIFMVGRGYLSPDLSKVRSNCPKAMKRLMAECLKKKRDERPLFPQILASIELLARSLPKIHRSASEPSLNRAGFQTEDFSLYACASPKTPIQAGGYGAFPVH
Chain of Acetylcholine receptor subunit alpha (Homo sapiens) (P02708 whole entry): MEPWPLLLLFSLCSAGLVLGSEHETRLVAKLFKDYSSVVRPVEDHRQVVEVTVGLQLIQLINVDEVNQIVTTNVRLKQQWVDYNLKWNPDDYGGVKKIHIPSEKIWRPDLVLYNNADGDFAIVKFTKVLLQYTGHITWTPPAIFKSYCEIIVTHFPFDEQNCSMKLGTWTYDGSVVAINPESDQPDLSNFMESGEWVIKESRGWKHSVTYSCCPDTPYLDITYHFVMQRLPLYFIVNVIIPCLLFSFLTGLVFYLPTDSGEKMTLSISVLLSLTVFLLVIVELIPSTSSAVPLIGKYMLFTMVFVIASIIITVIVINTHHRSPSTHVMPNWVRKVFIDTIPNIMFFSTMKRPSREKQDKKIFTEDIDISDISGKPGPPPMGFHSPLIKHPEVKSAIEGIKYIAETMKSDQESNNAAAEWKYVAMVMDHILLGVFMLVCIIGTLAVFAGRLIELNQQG
Chain of Serine/threonine-protein kinase TAO2 (Q9UL54 whole entry, the tested form may be a part): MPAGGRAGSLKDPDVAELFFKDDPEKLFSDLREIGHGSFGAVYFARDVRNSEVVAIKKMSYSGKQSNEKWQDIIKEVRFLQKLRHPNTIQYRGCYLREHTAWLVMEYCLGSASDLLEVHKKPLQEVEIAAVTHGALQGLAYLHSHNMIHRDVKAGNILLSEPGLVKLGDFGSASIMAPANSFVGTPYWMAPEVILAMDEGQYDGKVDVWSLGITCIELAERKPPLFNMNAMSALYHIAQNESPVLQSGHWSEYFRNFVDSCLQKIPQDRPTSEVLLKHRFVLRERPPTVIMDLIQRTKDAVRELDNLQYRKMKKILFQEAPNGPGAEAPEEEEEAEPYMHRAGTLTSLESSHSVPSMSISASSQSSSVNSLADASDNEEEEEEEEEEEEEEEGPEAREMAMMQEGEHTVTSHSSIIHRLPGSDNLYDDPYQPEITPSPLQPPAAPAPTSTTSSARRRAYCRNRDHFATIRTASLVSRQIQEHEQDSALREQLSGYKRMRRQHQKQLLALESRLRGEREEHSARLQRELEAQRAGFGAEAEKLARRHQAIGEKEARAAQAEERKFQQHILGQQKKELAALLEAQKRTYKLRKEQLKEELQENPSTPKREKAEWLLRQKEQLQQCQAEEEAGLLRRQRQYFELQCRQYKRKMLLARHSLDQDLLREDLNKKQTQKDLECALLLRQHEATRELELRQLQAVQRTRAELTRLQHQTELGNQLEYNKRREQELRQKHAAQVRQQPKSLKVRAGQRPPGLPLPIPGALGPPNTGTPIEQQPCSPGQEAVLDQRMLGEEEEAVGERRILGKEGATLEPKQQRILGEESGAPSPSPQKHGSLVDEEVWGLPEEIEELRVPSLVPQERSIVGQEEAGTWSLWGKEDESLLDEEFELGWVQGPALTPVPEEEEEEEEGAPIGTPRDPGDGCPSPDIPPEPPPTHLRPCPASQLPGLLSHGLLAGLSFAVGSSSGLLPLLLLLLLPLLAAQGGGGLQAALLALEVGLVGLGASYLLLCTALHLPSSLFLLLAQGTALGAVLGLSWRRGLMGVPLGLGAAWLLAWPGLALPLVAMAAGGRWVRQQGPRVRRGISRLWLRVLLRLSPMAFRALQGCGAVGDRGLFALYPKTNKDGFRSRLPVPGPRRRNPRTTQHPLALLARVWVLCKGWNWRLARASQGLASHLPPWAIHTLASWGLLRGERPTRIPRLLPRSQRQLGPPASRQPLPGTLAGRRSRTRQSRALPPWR
Chain of Serine/threonine-protein kinase Sgk2 (Q9HBY8 whole entry, the tested form may be a part): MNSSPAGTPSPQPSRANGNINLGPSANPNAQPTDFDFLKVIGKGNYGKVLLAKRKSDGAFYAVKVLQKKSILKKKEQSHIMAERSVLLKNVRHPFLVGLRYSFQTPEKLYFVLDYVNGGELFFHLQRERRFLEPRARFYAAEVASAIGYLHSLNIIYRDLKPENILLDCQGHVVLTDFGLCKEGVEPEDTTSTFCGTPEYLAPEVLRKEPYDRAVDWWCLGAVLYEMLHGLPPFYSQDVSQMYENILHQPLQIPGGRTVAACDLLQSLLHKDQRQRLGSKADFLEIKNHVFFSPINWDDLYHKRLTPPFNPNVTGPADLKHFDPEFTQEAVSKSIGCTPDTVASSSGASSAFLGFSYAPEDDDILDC
Chain of 3-phosphoinositide-dependent protein kinase 1 (O15530 whole entry): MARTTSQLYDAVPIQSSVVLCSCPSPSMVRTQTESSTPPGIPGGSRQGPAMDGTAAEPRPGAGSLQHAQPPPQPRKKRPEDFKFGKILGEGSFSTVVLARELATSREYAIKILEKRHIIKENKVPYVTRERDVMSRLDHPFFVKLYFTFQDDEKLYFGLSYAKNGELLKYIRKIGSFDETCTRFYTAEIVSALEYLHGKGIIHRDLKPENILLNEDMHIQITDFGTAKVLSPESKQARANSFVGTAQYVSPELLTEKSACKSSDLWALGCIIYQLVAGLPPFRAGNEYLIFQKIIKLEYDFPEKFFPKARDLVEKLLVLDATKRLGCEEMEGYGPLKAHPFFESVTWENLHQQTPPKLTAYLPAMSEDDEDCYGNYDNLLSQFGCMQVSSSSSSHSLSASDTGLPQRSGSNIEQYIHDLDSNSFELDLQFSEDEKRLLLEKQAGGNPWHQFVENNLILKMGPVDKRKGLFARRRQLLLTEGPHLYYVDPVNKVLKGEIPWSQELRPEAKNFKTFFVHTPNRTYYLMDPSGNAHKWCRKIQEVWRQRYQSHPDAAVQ

SMILES: C[C@@H]1C[C@H]1C(=O)N1CCN(c2cnc(C#N)c(-c3cnn(C)c3)n2)C[C@H]1C
- inhibition [1]: 9%
- fraction unbound [2]: 0.213
- pIC50 [3]: < 4.00
- inhibition [4]: 0%
- pIC50 [5]: < 4.00
- pIC50 [6]: < 4.52
- pIC50 (Insulin receptor): < 4.00
- inhibition [7]: -1%
- inhibition [8]: 5%
- inhibition [9]: -1%
- pIC50 [10]: < 4.00
- pIC50 [11]: < 4.00
- pIC50 [12]: < 4.00
- pIC50 [13]: < 4.00
- Ratio IC50 (Homo sapiens): 847
- pIC50 [14]: < 4.00
- pIC50 [15]: < 4.00
- pIC50 (Aurora kinase C): < 4.00
- pIC50 [16]: < 4.00
- inhibition (Rattus norvegicus): 14%
- pIC50 [17]: < 4.00
- pIC50 [18]: < 4.00
- pIC50 [19]: < 4.00
- pIC50 [20]: < 4.00
- pIC50 [21]: < 4.00
- pIC50 [22]: < 4.00

Reference: ChEMBL document CHEMBL4602617, “Discovery and optimization of heteroaryl piperazines as potent and selective PI3Kδ inhibitors” (Bioorg Med Chem Lett, 2020)
